According to ChEMBL document CHEMBL1143770, “Mono, di and tri-mannopyranosyl phosphates as mannose-1-phosphate prodrugs for potential CDG-Ia therapy” (Bioorg Med Chem Lett, 2007):

Columns and labels:
[1] = Inhibition 2[3H]mannose incorporation into glycoconjugates in lymphoblasts isolated from congenital disorders of glycosylation-Ia patient at 300 uM; assay type: functional; conditions: Homo sapiens, Lymphoblast
[2] = Cytotoxicity in human lymphoblasts assessed as release of cellular lactate dehydrogenase at 300 uM after 16 hrs relative to methanol; assay type: cell-based; conditions: lymphoblast

Row | Compound | inhibition at 300 µM [1] [%] | Activity [2]
1 | CCCC(=O)OC[C@H]1O[C@H](OP(=O)(OCc2ccccc2)O[C@H]2O[C@H](COC(=O)CCC)[C@@H](OC(=O)CCC)[C@H](OC(=O)CCC)[C@@H]2OC(=O)CCC)[C@@H](OC(=O)CCC)[C@@H](OC(=O)CCC)[C@@H]1OC(=O)CCC (single isomer, unassigned) | 71 | –
2 | CC(C)C(=O)OC[C@H]1O[C@H](OP(=O)(Oc2ccccc2)O[C@H]2O[C@H](COC(=O)C(C)C)[C@@H](OC(=O)C(C)C)[C@H](OC(=O)C(C)C)[C@@H]2OC(=O)C(C)C)[C@@H](OC(=O)C(C)C)[C@@H](OC(=O)C(C)C)[C@@H]1OC(=O)C(C)C (single isomer, unassigned) | 78 | –
3 | CC(=O)OC[C@H]1O[C@H](OP(=O)(Oc2ccccc2)O[C@H]2O[C@H](COC(C)=O)[C@@H](OC(C)=O)[C@H](OC(C)=O)[C@@H]2OC(C)=O)[C@@H](OC(C)=O)[C@@H](OC(C)=O)[C@@H]1OC(C)=O (single isomer, unassigned) | 26 | –
4 | CC(=O)OC[C@H]1O[C@H](OP(=O)(Oc2cccc3ccccc23)O[C@H]2O[C@H](COC(C)=O)[C@@H](OC(C)=O)[C@H](OC(C)=O)[C@@H]2OC(C)=O)[C@@H](OC(C)=O)[C@@H](OC(C)=O)[C@@H]1OC(C)=O (single isomer, unassigned) | 56 | <= 25%
